Assay results as given in patent US20250327028A1, “ENGINEERED PLATELETS AS TARGETED PROTEIN DEGRADERS” (Wisconsin Alumni Research Foundation, priority 2024, published 2025).

Columns and labels:
4T1 cells = assay: In-gel fluorescence detection of NA-647 internalization in 4T1 cells cotreated with HAC-B; assay type: cell-based, murine; conditions: 4T1 cells cotreated with HAC-B (all concentrations) and NA-647, 2 h
Method: In-gel fluorescence detection: In-gel fluorescence was mainly used to investigate the internalization of NeutrAvidin™_647 in HAC-B-treated cancer cells.
Sample preparation: 4T1 or WT MDA-MB-231 cells were seeded in 6-well culture plates with a density of 5×10^4 cells in each well and cultured for 24 h. If HAI pretreatment was performed, the cells were incubated in the HAI-containing blank medium at different concentrations for 2 h and washed with PBS twice before the following treatments. Then, the cells were treated with free HAC-B or the combinations of various ligands at the indicated concentrations for the predetermined time points. Next, the drug-containing medium was removed, and PBS was used to wash the cells twice, followed by incubating the cells in the blank medium containing NeutrAvidin™ DyLight™ 650 (NA-647, Invitrogen/84607) at 0.5 μM for 1 h. […]
In-gel fluorescence imaging: After 30-min lysis, the lysates were centrifuged at 10,000 g for 10 minutes at 4° C., and the corresponding supernatants were collected, followed by quantification of the total proteins in the supernatant through the BCA assay. […] After the proteins were separated, the gels were subjected to fluorescence imaging with the ChemiDoc™ MP imaging system (Bio-Rad).

WT MDA-MB-231 cells = assay: Colocalization between internalized NeutrAvidin and lysosome marker LAMP1; assay type: cell-based, human; conditions: HAC-B 5 μM, NA-647 0.5 μM 1 h
Method: Colocalization between internalized NeutrAvidin™ and lysosome maker: 5×10^4 WT MDA-MB-231 cells were seeded in a confocal dish and cultured for 24 h at 37° C. Then, the cells were treated with free HAC-B at 5 μM for 2 h. Next, the drug-containing medium was removed, and PBS was used to wash the cells twice, followed by incubating the cells in the blank medium containing NA-647 at 0.5 μM for 1 h. Subsequently, the cells were washed with PBS twice and fixed with 4% PFA at room temperature for 20 min. Subsequently, the cell sample was treated with the permeabilization solution (0.5% Triton™ X-100 in PBS) at room temperature for another 20 min, followed by incubation with the blocking buffer (1% BSA in PBS) at room temperature for 1 h. The cell sample was incubated with the rabbit anti-LAMP1 antibody (Cell Signaling Technology/9091T) overnight at 4° C., followed by the incubation with the Alexa Fluor®488-conjugated anti-rabbit IgG H & L secondary antibodies at room temperature for 2 h. After staining with Hoechst 33342, the cells were subjected to Leica SP8 Confocal WLL STED microscopy for observation.

Question: With `N#CCN(C(=O)CCCC[C@@H]1SC[C@@H]2NC(=O)N[C@@H]21)S(=O)(=O)c1ccc(C(=O)NCCCn2c(Sc3cc4c(cc3I)OCO4)nc3c(N)ncnc32)cc1` [HAC-B, N-(3-(6-amino-8-((6-iodobenzo[d][1,3]dioxol-5-yl)thio)-9H-purin-9-yl)propyl)-4-(N-(cyanomethyl)-N-(5-((3aS,4S,6aR)-2-oxohexahydro-1H-thieno[3,4-d]imidazol-4-yl)pentanoyl)sulfamoyl)benzamide] as the compound, how does the “internalization of NA-647 on cotreatment” value (4T1 cells) read?
Answer: failed to internalize NA-647 in a large quantity within 2 h

Question: And the “distribution of internalized NA-647 relative to lysosome marker LAMP1” value (WT MDA-MB-231 cells)?
Answer: mainly overlapped with the lysosome maker, LAMP1
